Data as given in patent US20090156477A1, “Compositions and Methods for Regulating Inflammatory Responses” (Massachusetts Institute of Technology, priority 2005, published 2009).
“Also recorded” adds a separate entry of the source.

Key:
Format in all cases: cell-based, human
caveolin-1 = assay: Immunohistochemistry for caveolin-1 in Caco-2 cells; conditions: four hours after administration
Description: (§1) Caco-2 cells were grown to just prior to confluency on collagen IV coated glass slides. Cells were treated with PBS, FGF1, FGF2 and FGF7, and were incubated at 37° C. in a 5% CO2 humidified incubator for 1 hour, 4 hours, 24 hours or 48 hours, as noted. Cells were washed with PBS, fixed with 3.7% formalin for 10 minutes and washed again with PBS. Cells were treated with 0.1% Triton x-100 for 5 minutes to extract lipids. Cells were washed with PBS and preincubated with PBS supplemented with 1% bovine serum albumin. Primary antibodies were added for 4 hours at room temperature, and cells were washed with PBS. […]
(§2) Cells, except those stained with phalloidin, were washed with PBS and stained with diamidino-2-phenylindole (DAPI) for 5 minutes at room temperature (Molecular Probes). […] Cells were examined by confocal microscopy (ZO-1 and phalloidin only), or by fluorescence microscopy. A Nikon HB10101AF fluorescence microscope was used and images were captured at room temperature using a Hitachi HVC20 camera and Scion image acquisition software. […]

Caco-2 monolayers = assay: Monolayer flux of 3 kDa FITC-dextran, Caco-2; conditions: 100 ng/ml ligand on days 10 and 12, flux measured on day 15, PBS 20.28 ± 4.72
Description: (§3) Cells were plated on transwells as described. Media from the basolateral chamber was removed every other day and replaced with new media. Resistances were followed for 10 days, and either 100 ng/ml FGF2, 100 ng/ml FGF7 or 10 μl PBS were added on days 10 and 12. On day 15, media was removed from both the apical and basolateral chambers. The basolateral chamber was filled with 1 ml HBSS. FITC conjugated to 3 kDa dextran was added to the apical chamber in a volume of 100 μl, at 1 mg/ml in HBSS. After 30, 60 and 90 minutes, 50 μl was removed from the basolateral chamber and transferred to a 96 well plate, and 50 μl HBSS was added to the basolateral chamber. Subsequently, the flux was determined by measurement of FITC-conjugated dextran that crossed the monolayer by measurement with a fluorimeter, stimulating at 480 nm and measuring emission at 530 nm.

T84 monolayers = assay: Monolayer flux of 3 kDa FITC-dextran, T84; conditions: 100 ng/ml ligand on days 10 and 12, flux measured on day 15, PBS 7.99 ± 0.22
Description: as §3

occludin and ZO-1 [1] = assay: Immunostaining for occludin and ZO-1 in Caco-2 cells; conditions: 100 ng/ml
Description: To determine occludin and ZO-1 expression patterns, cells were plated on transwells as described for TER assays. Media from the basolateral chamber was removed every other day and replaced with new media. Resistances were measured for 10 days, and either 100 ng/ml FGF2, 100 ng/ml FGF7 or 10 μl PBS were added on days 10 and 12. On day 15, media was removed from both the apical and basolateral chambers, and the apical chamber was washed twice with PBS. One ml of 1% (w/v) paraformaldehyde in cacodylate buffer was added to each well, the plates were incubated for 10 minutes at room temperature, and the wells were washed once in PBS. One ml permeabilization media, consisting of 0.2% Triton X-100 and 2% BSA in PBS, was added to each well. After a 10 minute incubation at room temperature, wells were washed three times. 20 μl primary antibodies (rabbit polyclonal anti-human or occludin rabbit polyclonal anti-human ZO-1) diluted 1:20 in 1% goat serum, 0.25% sodium azide in PBS, were added to the apical chamber of three wells per antibody per ligand, and plates were incubated for 1 hour in a humidified chamber. […] Staining was then visualized by fluorescence microscopy. […] A Nikon HB10101AF fluorescence microscope was used to capture images at room temperature using a Hitachi HVC20 camera and Scion image acquisition software. […]

occludin and ZO-1 [2] = assay: Immunostaining for occludin and ZO-1 in T84 cells; conditions: 100 ng/ml
Description: To determine occludin and ZO-1 expression patterns, cells were plated on transwells as described for TER assays. Media from the basolateral chamber was removed every other day and replaced with new media. Resistances were measured for 10 days, and either 100 ng/ml FGF2, 100 ng/ml FGF7 or 10 μl PBS were added on days 10 and 12. On day 15, media was removed from both the apical and basolateral chambers, and the apical chamber was washed twice with PBS. One ml of 1% (w/v) paraformaldehyde in cacodylate buffer was added to each well, the plates were incubated for 10 minutes at room temperature, and the wells were washed once in PBS. One ml permeabilization media, consisting of 0.2% Triton X-100 and 2% BSA in PBS, was added to each well. After a 10 minute incubation at room temperature, wells were washed three times. 20 μl primary antibodies (rabbit polyclonal anti-human or occludin rabbit polyclonal anti-human ZO-1) diluted 1:20 in 1% goat serum, 0.25% sodium azide in PBS, were added to the apical chamber of three wells per antibody per ligand, and plates were incubated for 1 hour in a humidified chamber. […] Staining was then visualized by fluorescence microscopy. […] A Nikon HB10101AF fluorescence microscope was used to capture images at room temperature using a Hitachi HVC20 camera and Scion image acquisition software.

f-actin = f-actin (phalloidin) staining in Caco-2 cells; conditions: Caco-2 monolayers
Description: as §1, §2

E-cadherin = assay: Immunohistochemistry for E-cadherin in Caco-2 cells; conditions: for E-cadherin localization after 24 hours: vs 1 hour and vs PBS and FGF1
Description: Caco-2 cells were grown to just prior to confluency on collagen IV coated glass slides. Cells were treated with PBS, FGF1, FGF2 and FGF7, and were incubated at 37° C. in a 5% CO2 humidified incubator for 1 hour, 4 hours, 24 hours or 48 hours, as noted. Cells were washed with PBS, fixed with 3.7% formalin for 10 minutes and washed again with PBS. Cells were treated with 0.1% Triton x-100 for 5 minutes to extract lipids. Cells were washed with PBS and preincubated with PBS supplemented with 1% bovine serum albumin. Primary antibodies were added for 4 hours at room temperature, and cells were washed with PBS. Primary antibodies used were as follows: rabbit anti-human ZO-1 (1:160; Zymed Laboratories, San Francisco, Calif.); mouse anti-human syndecan-1 (1:300; Santa Cruz Biotechnology); goat anti-human Fz-1 (1:125; Santa Cruz Biotechnology); rabbit anti-human caveolin-1 (1:250; Santa Cruz Biotechnology); goat anti-human glypican-1 (1:100; Santa Cruz Biotechnology); mouse anti-human E-cadherin (1:250; Zymed Laboratories); rabbit anti-human β-catenin (1:125; Cell Signaling Technology, Beverly, Mass.); and rabbit anti-human phospho-β-catenin (Ser33/37/Thr41; 1:125; Cell Signaling Technology, Beverly, Mass.).
Cells were then treated with secondary antibodies, Texas Red-labeled phalloidin (Molecular Probes, Eugene, Oreg.) or FLAER-FL1 (1:400; Protox Biotech, Victoria, BC, Canada) as appropriate for 1 hour in the dark at room temperature. Secondary antibodies used were as follows: FITC-labeled chicken anti-rabbit (for ZO-1; 1:100; Molecular Probes, Eugene, Oreg.); Texas Red-labeled goat-anti mouse (for syndecan-1; 1:400; Molecular Probes); FITC-labeled donkey anti-mouse (for syndecan-1; 1:400; Molecular Probes, Eugene, Oreg.); FITC-labeled rabbit anti-mouse (for syndecan-1 and E-cadherin; 1:500; Molecular Probes, Eugene, Oreg.); Texas Red-labeled rabbit anti-goat (for Fz-1; 1:200; Jackson ImmunoResearch Laboratories, West Grove, Pa.); Texas Red-labeled goat anti-rabbit (for caveolin-1, β-catenin and phospho-β-catenin; 1:500; Molecular Probes); and Texas Red-labeled donkey anti-goat (for glypican-1; 1:80; Research Diagnostics, Flanders, N.J.).
Cells, except those stained with phalloidin, were washed with PBS and stained with diamidino-2-phenylindole (DAPI) for 5 minutes at room temperature (Molecular Probes). Controls of no antibody, primary antibody only, and secondary antibody only were performed. Cells were examined by confocal microscopy (ZO-1 and phalloidin only), or by fluorescence microscopy. A Nikon HB10101AF fluorescence microscope was used and images were captured at room temperature using a Hitachi HVC20 camera and Scion image acquisition software. Images were processed using Adobe Photoshop 7.0 and Adobe Illustrator 10.0.

phospho-β-catenin = assay: Immunohistochemistry for phospho-β-catenin in Caco-2 cells
Description: as §1, §2

Molecule | caveolin-1 localization (caveolin-1) | Flux across monolayers (3 kDa-dextran conjugated to FITC; function of emission at 530 nm over time) (Caco-2 monolayers) | Flux across monolayers (3 kDa-dextran conjugated to FITC; function of emission at 530 nm over time) (T84 monolayers) | membrane ruffling (tight junction protein staining) (occludin and ZO-1 [1]) | membrane ruffling (tight junction protein staining) (occludin and ZO-1 [2]) | actin stress fiber formation (f-actin) | E-cadherin localization after 1 hour (E-cadherin) | E-cadherin localization after 24 hours (E-cadherin) | phosphorylated β-catenin localization (phospho-β-catenin)
FGF1: Recombinant human FGF1 from Amgen | localized surrounding the nucleus | – | – | – | – | – | – | – | –
FGF2: Recombinant human FGF2, produced as described | – | 47.82 ± 4.64 | 37.21 ± 10.25 | induced ruffling of cell membranes; also recorded: induced notable membrane ruffling | induced ruffling of cell membranes | induced actin stress fiber formation | altered E-cadherin localization | more cytoplasmic localization | clustered around the nucleus
FGF7: Recombinant human FGF7 from Sigma (protein, UniProt P21781 32-194, looked up) Fibroblast growth factor 7: CNDMTPEQMATNVNCSSPERHTRSYDYMEGGDIRVRRLFCRTQWYLRIDKRGKVKGTQEMKNNYNIMEIRTVAVGIVAIKGVESEFYLAMNKEGKLYAKKECNEDCNFKELILENHYNTYASAKWTHNGGEMFVALNQKGIPVRGKKTKKEQKTAHFLPMAIT | – | 117.14 ± 25.36 | 33.39 ± 9.24 | induced ruffling of cell membranes; also recorded: induced notable membrane ruffling | induced ruffling of cell membranes | induced actin stress fiber formation | altered E-cadherin localization | more cytoplasmic localization | clustered around the nucleus
